Broadly, the IC50 is the midpoint of a concentration-inhibition curve. A word on the IC90: it is the concentration at which the effect reaches the 90% level.

Where only a bound is given, the exact number is not on record here.

The subject of this experiment is Plasmodium berghei. Kind of experiment: Luciferase/luciferin-expressing antifolate-resistant parasites were used to infect a culture of HepG2 cells that were pre-incubated with compounds. Infected hepatocytes emit light due to the luciferase reaction. Assay results are presented as the percent inhibition of light emission compared to control. […]. Type of experiment: functional. The conditions noted are these: sporozoite; for IC90: read-out: LUCIFERASE INFECTION ASSAY - IC90.

[1] abbreviates: read-out: LUCIFERASE INFECTION ASSAY - IC50.

Turning to `Cc1cc(/C=N/Nc2ccnc3cc(Cl)ccc23)c(C)n1-c1cc(S(=O)(=O)N2CCOCC2)ccc1N1CCCC1`, the IC90 was > 10 µM. For the same compound, the IC50 (FFLUC_HILL_SLOPE 15.8, FFLUC_R_SQUARED 0.537, PBLUC_HILL_SLOPE 3.6, PBLUC_R_SQUARED 0.465, read-out: LUCIFERASE INFECTION ASSAY - IC50) was determined as 6.84 µM.
As to `COc1cc2c(cc1OC)C(c1ccccc1)N(C(=O)/C=C/c1ccsc1)CC2` (centres undefined), the IC90 was > 10 µM. Further, the IC50 under setting [1] was > 10 µM.
For the compound `Cn1ccc2cc(-c3cnc4cnc(-c5ccccc5)cn34)ccc21`, the IC90 came out at 0.242 µM. Further, the IC50 (HEPG2TOX_HILL_SLOPE 1.21, HEPG2TOX_R_SQUARED 0.923, PBLUC_HILL_SLOPE 1.33, PBLUC_R_SQUARED 0.803, read-out: LUCIFERASE INFECTION ASSAY - IC50) was determined as 0.0465 µM.
`Cn1c(SCC#N)nnc1-c1ccc(C(C)(C)C)cc1`: the IC90 amounted to 1.34 µM. Also, the IC50 (PBLUC_HILL_SLOPE 23.6, PBLUC_R_SQUARED 0.364, read-out: LUCIFERASE INFECTION ASSAY - IC50) was 1.22 µM.
For the compound `COc1ccc(C(=O)NN(C)c2nc3ccccc3nc2C(F)(F)F)cc1`, the IC90 stood at 4.32 µM. Further, the IC50 (HEPG2TOX_HILL_SLOPE 1.65, HEPG2TOX_R_SQUARED 0.987, PBLUC_HILL_SLOPE 2.07, PBLUC_R_SQUARED 0.843, read-out: LUCIFERASE INFECTION ASSAY - IC50) was found to be 1.49 µM.
For `CCOc1ccc(NC(=O)c2ccccc2NC(=O)COC(=O)/C(=C/c2cc(OC)c(OC)c(OC)c2)c2ccc(-c3ccccc3)cc2)cc1`, the IC90 was > 10 µM. Moreover, the IC50 (FFLUC_HILL_SLOPE 2.07, FFLUC_R_SQUARED 0.755, PBLUC_HILL_SLOPE 3.07, PBLUC_R_SQUARED 0.285, read-out: LUCIFERASE INFECTION ASSAY - IC50) came to 6.17 µM.
Regarding `Cc1cccc(C2CC(=O)Nc3[nH]c(-c4ccccc4)nc(=O)c32)c1` (centres undefined), the 90% effect concentration (IC90) was > 9.96 µM. Also, the IC50 (PBLUC_HILL_SLOPE 13.4, PBLUC_R_SQUARED 0.0843, read-out: LUCIFERASE INFECTION ASSAY - IC50) turned out to be 9.49 µM.
For `O=C(On1c(-c2ccccc2)nc2ccccc2c1=O)c1ccc(F)cc1`, the IC90 was > 9.16 µM. Also, under setting [1], the IC50 was > 9.16 µM.
With `COc1cc(OC)c(C2NC(=O)c3ccc(Cl)cc3N2)cc1OC` (centres undefined), the IC90 was > 10 µM. For the same compound, for the setting “HEPG2TOX_HILL_SLOPE 8.48, HEPG2TOX_R_SQUARED 0.352, read-out: LUCIFERASE INFECTION ASSAY - IC50”, the IC50 is > 10 µM.
`Cc1ccc(OCC(=O)NS(=O)(=O)c2ccccc2)cc1`: the IC90 was > 10.8 µM. The IC50 under setting [1] is > 10.8 µM.
As to `O=C(Nc1ccc(Oc2ccccc2)cc1)C1=CN2CCN(Cc3ccccc3)C(=O)N=C2O1`, the IC90 is > 10 µM. For the same compound, the IC50 under setting [1] was > 10 µM.
`O=C(NCc1ccc(-c2nc3ccccc3s2)cc1)c1ccco1`: the IC90 was found to be 3.45 µM. Besides, the IC50 under setting [1] was 2.81 µM.
Regarding `NC(=O)c1cc(-c2csc(NC(=O)Cc3ccc(Cl)c(Cl)c3)n2)c[nH]1`, the IC90 was > 10 µM. Besides, the IC50 (FFLUC_HILL_SLOPE 1.47, FFLUC_R_SQUARED 0.0625, read-out: LUCIFERASE INFECTION ASSAY - IC50) was > 10 µM.
With `CCc1nn2c(=O)cc(CSc3ccc(C)cc3)[nH]c2c1-c1ccc(F)cc1`, the IC90 turned out to be 2.98 µM. The IC50 (FFLUC_HILL_SLOPE 2.56, FFLUC_R_SQUARED 0.75, PBLUC_HILL_SLOPE 10.5, PBLUC_R_SQUARED 0.512, read-out: LUCIFERASE INFECTION ASSAY - IC50) worked out at 2.42 µM.
`CSc1sc(-c2ccnc(SCC(=O)c3ccc(Cl)cc3)n2)c2c1C(=O)CCC2`: the IC90 was > 7.16 µM. Under setting [1], the IC50 was > 7.16 µM.
Turning to `O=C1C=CC(=O)N1c1ccc(Cl)cc1`, the IC90 was > 15.9 µM. For the same compound, the IC50 (FFLUC_HILL_SLOPE 21.9, FFLUC_R_SQUARED 0.305, PBLUC_HILL_SLOPE 2.09, PBLUC_R_SQUARED 0.529, read-out: LUCIFERASE INFECTION ASSAY - IC50) was determined as 12.2 µM.
`CCN1CCN(c2nc(CC(C)C)c3c(c2C#N)CCCC3)CC1`: the IC90 is > 10.1 µM. Under setting [1], the IC50 was > 10.1 µM.
With `CCOc1cc(/C=C/C(=O)c2nc3ccccc3s2)cc(Cl)c1OCC(=O)N(C)C`, the IC90 was found to be 4.79 µM. Besides, where the note is “HEPG2TOX_HILL_SLOPE 10.9, HEPG2TOX_R_SQUARED 0.987, PBLUC_HILL_SLOPE 8.99, 3.54, PBLUC_R_SQUARED 0.449, 0.614, read-out: LUCIFERASE INFECTION ASSAY - IC50”, the IC50 was determined as 4.84 µM.
Consider `CC(c1ccccc1)n1c(SCCSc2cc(Cl)ccc2Cl)nc2ccccc2c1=O` (centres undefined), for which the IC90 is > 10 µM. The IC50 (PBLUC_HILL_SLOPE 4.25, PBLUC_R_SQUARED 0.473, read-out: LUCIFERASE INFECTION ASSAY - IC50) was 6.21 µM.
`O=S(=O)(c1ccc(CNc2ncnc3scc(-c4ccc(F)cc4)c23)s1)N1CCCC1`: the IC90 was > 10 µM. The IC50 (FFLUC_HILL_SLOPE 2.33, FFLUC_R_SQUARED 0.668, PBLUC_HILL_SLOPE 11.9, PBLUC_R_SQUARED 0.757, read-out: LUCIFERASE INFECTION ASSAY - IC50) was 8.74 µM.
`CC(Nc1ccc(Oc2cccc(F)c2)cc1)C(=O)N1CCNC1=O` (centres undefined): the IC90 worked out at 1.08 µM. For the setting “PBLUC_HILL_SLOPE 25, PBLUC_R_SQUARED 0.491, read-out: LUCIFERASE INFECTION ASSAY - IC50”, the concentration for half-maximal inhibition (IC50) was found to be 0.991 µM.
With `CN(C)CCNC(=O)c1cccc(-c2cc(-c3ccc(-c4ccccc4)cc3F)cnc2N)c1`, the IC90 was > 7.26 µM. For the setting “PBLUC_HILL_SLOPE 15.7, PBLUC_R_SQUARED 0.255, read-out: LUCIFERASE INFECTION ASSAY - IC50”, the IC50 is > 7.26 µM.
As to `CCC(C)NC(=O)c1c(NC(=O)c2ccc(F)cc2F)nc2ccc(C)cn12` (centres undefined), the IC90 was 3.23 µM. In addition, the IC50 under setting [1] came to 2.9 µM.
Take `CC(C)(C)c1cc(NC(=O)Nc2ccc(C#N)cc2)n(-c2ccccc2)n1`: the IC90 was 0.0487 µM. For the same compound, the IC50 (PBLUC_HILL_SLOPE 3.93, PBLUC_R_SQUARED 0.959, read-out: LUCIFERASE INFECTION ASSAY - IC50) is 0.0279 µM.
For `Cc1ccccc1OCc1occc1C(=O)Nc1cccc(-n2cnnn2)c1`, the IC90 turned out to be 6.83 µM. In addition, where the note is “HEPG2TOX_HILL_SLOPE 2.96, HEPG2TOX_R_SQUARED 0.854, PBLUC_HILL_SLOPE 2.81, PBLUC_R_SQUARED 0.577, read-out: LUCIFERASE INFECTION ASSAY - IC50”, the IC50 stood at 3.12 µM.
`Nn1c(Cc2ccccc2F)nnc1SCC(=O)NCc1ccc2c(c1)OCO2`: the IC90 is > 10 µM. Also, the IC50 under setting [1] is > 10 µM.
On to `O=C1/C(=C\c2ccccn2)N(Cc2ccccc2)S(=O)(=O)c2ccccc21`, for which the IC90 is 5.19 µM. Also, the IC50 under setting [1] was found to be 2.87 µM.
